Assay results: patent publication US12508302B2, “Pharmaceutical composition providing mucolytic effect” (FRIMLINE PRIVATE LIMITED, priority 2022, dated 2025)

Tested on: tracheobronchial secretion in rats
Assay: Mucolytic activity in rats: tracheobronchial secretion of fluorescein sodium (FINa)
Assay type: in vivo, rat (Swiss Albino Rats)
Details: for Fluorescein Sodium (FINa) Secretion: dosed 30 minutes before i.v. FINa 300 mg/kg, tracheobronchial lavage one hour after administration, doses as Table 1, mean±SEM; for Percentage (%) Enhancement of FINa secretion compared to Normal: versus normal group (G1)
Procedure: The effect of the compositions of the present invention was studied in animals. For this study, screening effect of synergistic combination of compositions/formulations comprising N-Acetyl-L-Cysteine, Lactoferrin and additional active ingredients for mucolytic activity in rat was performed. The following trials were carried out:
Eighty-Four (84) rats including male and female (Swiss Albino Rats) divided into 14 groups (6 per group) were maintained in animal house in a light/dark atmosphere based on a 12 hour cycle having temperature and relative humidity in the range of 19 to 25±2° C. and 30-70%, respectively. To maintain the appropriate conditions, temperature and relative humidity were recorded three times daily. All animals were acclimatized for a minimum period of five days. Animals were maintained in the test setup for minimum 30 minutes once during the acclimatization period to reduce the stress. Animals were weighed on the day of receipt and observed daily for abnormalities if any. Detailed records of acclimatization were also maintained. Rats were housed 3 per cage in clean, sterilized Polypropylene cages. During complete experiments, animals were supplied with the standard certified rat pellet feed and drinking water treated by reverse osmosis ad libitum.
In order to evaluate the mucolytic activity in rats, eighty-four (84) rats were screened and divided into Fourteen (14) groups. For a comparative analysis, groups were divided and treated as below:
Tracheobronchial secretion in rats, expressed by the amount of fluorescein sodium (FINa) dye excreted into the respiratory tract, was measured by modification of methods published earlier.
Lactoferrin, Carotenoid, N-Acetyl-L-Cysteine or their combinations (G4-G14) were suspended in 1% Acacia. Acetylcholine (G2) and Bromhexine (G3) were dissolved in distilled water. The said active ingredients were administered orally (1 ml/100 g body weight) 30 minutes before intravenous injection of FINa (300 mg/kg, 0.1 ml/100 g body weight) in fasted rats.
One hour after administration, all rats were sacrificed with CO2 exposure; an incision was made, and the trachea was immediately exposed. An infant feeding tube was gently inserted into the trachea (about 30 mm deep). Five milliliters of 5% NaHCO3 solution (˜37° C.) was injected into the respiratory tract and immediately aspirated while gently massaging the thoracic area.
The tracheobronchial lavage fluid (4.9±0.1 ml) was centrifuged (3500 rpm for 10 minutes) and the supernatant was transferred to STP B & L tubes. The fluorescence intensity of the supernatant was measured with a Genesys 20 spectrophotometer set at a wavelength of 510 nm (emission).

Compound | Fluorescein Sodium (FINa) Secretion [μg/100 g/h] | Percentage (%) Enhancement of FINa secretion compared to Normal (doses as Table 1) | Percentage (%) Enhancement of FINa secretion compared to Normal (doses as Table 1, listed as diseased group) [%] | Percentage (%) Enhancement of FINa secretion compared to Normal (doses as Table 1, listed as N-Acetyl-L-Cysteine) [%] | Percentage (%) Enhancement of FINa secretion compared to Normal (doses as Table 1, listed as positive control) [%]
CC(=O)OCC[N+](C)(C)C [Diseased Control, Acetylcholine] | 0.37 ± 0.12 | −74.13 ± 6.4 ^ % | −74.13 |  | 
CC(=O)N[C@@H](CS)C(=O)O [NAC, N-Acetyl-L-Cysteine] | 1.99 ± 0.08 | 39.16 ± 5.1% |  | 39.16 | 
CN(Cc1cc(Br)cc(Br)c1N)C1CCCCC1 [Positive Control, Bromhexine] | 2.64 ± 0.18 | 84.62 ± 6.1% |  |  | 84.62
